# Measured values published in patent US20090036540A1, “Guanylhydrazones in Methods of Treatment or Diagnosis as Modulators of Signal Transduction” (Cytokine PharmaSciences, Inc., priority 2003, published 2009).
# Key:
# PBMCs = assay: Western blot of LPS-stimulated PBMCs for phosphorylated proteins; type: cell-based, human; settings: 1.0 μM CNI-1493 pre-incubation, LPS 15 minutes
# Protocol: (§1) Peripheral Blood Mononuclear Cells (PBMCs) were isolated from peripheral blood from healthy volunteers using standard density-gradient centrifugation over Ficoll-Paque Plus (Amersham Pharmacia Biotech AB, Uppsala, Sweden) after washing in resuspension in IMDM supplemented with 10% FBS, penicillin, streptomycin and amphotericin (hereafter referred to as complete IMDM).
# For western blot samples, […] PBMCs were suspended in 1 ml media and LPS stimulations were 15 minute incubations (37° C., 5% CO2) with 10 ng/ml LPS or pre-incubated with 1.0 μM CNI-1493 (Cytokine PharmaSciences, Inc.). Stimulations were terminated by an ice-cold PBS wash. Cells were subsequently pelleted, lysed, denatured (5 minutes at 95° C.) and stored at −20° C. 10^6 PBMCs lysed in 200 μl SDS Sample Buffer (62.5 mM Tris-HCl (pH 6.8 at 25° C.), 2% w/v SDS, 10% glycerol, 50 mM DTT, 0.01% w/v bromophenol blue), 25 μl of which was separated on 12% SDS-PAGE gels and transferred to nitrocellulose membranes. Antibodies for immunoblotting were from Cell Signaling and included Phospho-p38 MAP Kinase (cat #9211), Phospho-p44/42 MAP Kinase (cat #9101), Phospho-PKCzeta/lambda (cat #9378), Phospho-MEK1/2 (cat #9121), Phospho-Raf (cat #9424) and Phospho-SAPK/JNK (cat #9255).
# [1] = system: Peripheral Blood Mononuclear Cells; assay: PepChip kinome array: in vitro phosphorylation of peptide array by lysates of LPS-stimulated PBMCs; type: cell-based, human; settings: PBMC lysate, 1.0 μM CNI-1493, 100 ng/ml LPS
# Protocol: as §1
# For kinome array samples, 10^7 PBMCs were suspended in 5 ml media (IMDM supplemented with 1.0% human serum). LPS stimulation consisted of a […] (37° C., 5% CO2) with 100 ng/ml LPS (E. coli, serotype 0111:B4). CNI treated PBMCs were maintained in media dosed with 1.0 μM CNI-1493 (Cytokine PharmaSciences, Inc.) 1 hour before and during incubation for LPS stimulation. Stimulations were terminated by an ice-cold PBS wash. PBMCs were lysed in 200 μl cell lysis buffer (20 mM Tris-HCl (pH 7.5), 150 mM NaCl, 1 mM Na2EDTA, 1 mM EGTA, 1% Triton, 2.5 mM sodium pyrophosphate, 1 mM MgCl2, 1 mM beta-glycerophosphate, 1 mM Na3VO4, 1 mM NaF, 1 μg/ml leupeptin, 1 μg/ml aprotinin, 1 mM PMSF) and the volume of the cell lysate were equalised with dH2O. The cell lysates were subsequently cleared on a 0.22 μm filter. PepChip incubation mix was produced by adding 10 μl of filter-cleared activation mix (50% glycerol, 50 μM ATP, 0.05% v/v Brij-35, 0.25 mg/ml BSA, ^33P-γ-ATP (1000 kBq)). Next, the PepChip mix is added onto the chip and the chip is kept at 37° C. in a humidified stove for 90 minutes. Subsequently, the PepChip was washed once with TBST, twice in 2M NaCl and twice in demineralised H2O and air-dry the PepChip slips. The experiments were performed three times in duplicate. The average inter-experimental variance in relative values was less than 5% for all spots.
# The chips were exposed to a phosphoimager plate for 72 hours and the spots were analysed on AIDA analysing software. For graphical visualisation of the spots in FIG. 2 the data of four arrays was averaged to eliminate false positives.
smiles,measurement,setting,value
C/C(=N\NC(=N)N)c1cc(NC(=O)CCCCCCCCC(=O)Nc2cc(/C(C)=N/NC(=N)N)cc(/C(C)=N/NC(=N)N)c2)cc(/C(C)=N/NC(=N)N)c1 [Semapimod],MEK phosphorylation,PBMCs,abolishes MEK phosphorylation
same,lipopolysaccharide-dependent phosphorylation of the PKC site in c-Raf,PBMCs,does not interfere
same,"LPS + CNI: peptide phosphorylation, Kinase p34cdc2, Substrate Vimentin","[1]; Control 192, LPS 214",300
same,"LPS + CNI: peptide phosphorylation, Kinase CKII, Substrate Lamin B R","[1]; Control 214, LPS 1736",250
same,"LPS + CNI: peptide phosphorylation, Kinase p34cdc2, Substrate c-Src","[1]; Control 230, LPS 248",270
same,"LPS + CNI: peptide phosphorylation, Kinase CKII, Substrate TOPII","[1]; Control 231, LPS 900",900
same,"LPS + CNI: peptide phosphorylation, Kinase CKII, Substrate Lamin D","[1]; Control 242, LPS 822",320
same,"LPS + CNI: peptide phosphorylation, Kinase Auto, Substrate PKG","[1]; Control 246, LPS 8100",320
same,"LPS + CNI: peptide phosphorylation, Kinase GRK, Substrate Tau","[1]; Control 248, LPS 230",250
same,"LPS + CNI: peptide phosphorylation, Kinase JAK, Substrate STAT1a/b","[1]; Control 248, LPS 7704",231
same,"LPS + CNI: peptide phosphorylation, Kinase Cdc2, Substrate CKII","[1]; Control 268, LPS 1728",265
same,"LPS + CNI: peptide phosphorylation, Kinase CytoK Rec, Substrate FPS","[1]; Control 270, LPS 5512",265
same,"LPS + CNI: peptide phosphorylation, Kinase CK II?, Substrate TOPII","[1]; Control 274, LPS 280",300
same,"LPS + CNI: peptide phosphorylation, Kinase PKA, Substrate MBP","[1]; Control 280, LPS 1250",265
same,"LPS + CNI: peptide phosphorylation, Kinase Scr-family?, Substrate PTP-2C","[1]; Control 287, LPS 5960",250
same,"LPS + CNI: peptide phosphorylation, Kinase PKA, Substrate HSP27","[1]; Control 288, LPS 1072",298
same,"LPS + CNI: peptide phosphorylation, Kinase PKC, Substrate HSP27","[1]; Control 291, LPS 280",300
same,"LPS + CNI: peptide phosphorylation, Kinase PKA, Substrate v-Rel","[1]; Control 291, LPS 2574",291
same,"LPS + CNI: peptide phosphorylation, Kinase GSK3, Substrate GS","[1]; Control 312, LPS 320",250
same,"LPS + CNI: peptide phosphorylation, Kinase p34cdc2, Substrate CKII","[1]; Control 320, LPS 560",291
same,"LPS + CNI: peptide phosphorylation, Kinase PKA, Substrate Tau","[1]; Control 340, LPS 340",250
same,"LPS + CNI: peptide phosphorylation, Kinase PKA, Substrate c-Rel","[1]; Control 421, LPS 250",261
same,"LPS + CNI: peptide phosphorylation, Kinase p34cdc2, Substrate AP-1","[1]; Control 460, LPS 548",274
same,"LPS + CNI: peptide phosphorylation, Kinase PKA, Substrate MBP","[1]; Control 536, LPS 822",248
same,"LPS + CNI: peptide phosphorylation, Kinase CaM-II, Substrate MBP","[1]; Control 600, LPS 265",680
same,"LPS + CNI: peptide phosphorylation, Kinase PKA, Substrate GS","[1]; Control 795, LPS 7980",340
same,"LPS + CNI: peptide phosphorylation, Kinase PKA/Ca2+, Substrate Trp-5-MO","[1]; Control 1164, LPS 23925",1305
same,"LPS + CNI: peptide phosphorylation, Kinase PKA, Substrate GS","[1]; Control 1440, LPS 1020",3450
same,"LPS + CNI: peptide phosphorylation, Kinase PKC, Substrate Lamin B1","[1]; Control 2016, LPS 268",1072
same,"LPS + CNI: peptide phosphorylation, Kinase PKC, Substrate MBP","[1]; Control 2376, LPS 198",319
same,"LPS + CNI: peptide phosphorylation, Kinase PKA, Substrate P450","[1]; Control 2412, LPS 19980",265
same,"LPS + CNI: peptide phosphorylation, Kinase PKC, Substrate ACC-a","[1]; Control 2750, LPS 10692",861
same,"LPS + CNI: peptide phosphorylation, Kinase CKII, Substrate TOPII","[1]; Control 3836, LPS 320",291
same,"LPS + CNI: peptide phosphorylation, Kinase Src, Substrate Annexin2","[1]; Control 4438, LPS 8745",287
same,"LPS + CNI: peptide phosphorylation, Kinase PKC, Substrate EIF4E","[1]; Control 4494, LPS 41272",6699
same,"LPS + CNI: peptide phosphorylation, Kinase and Substrate not given","[1]; Control 4960, LPS 530",254
same,"LPS + CNI: peptide phosphorylation, Kinase CKI, Substrate GS","[1]; Control 5616, LPS 13386",300
